{"source": "patent US8916567B2", "about": "“Certain crystalline hydrates, pharmaceutical compositions thereof and methods for preparation and use thereof” (Universal Technology Alliance, Inc., priority 2009, dated 2014)", "key": {"[1]": {"tested_on": "Staphylococcus aureus", "assay": "Minimum inhibitory concentration (MIC) in vitro, agar dilution method, quality control strain", "format": "cell-based", "conditions": "strain S. AT C C25923 (Table 7 No. 1); hydrate", "summary_of_the_method": "(§1)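 CLSI agar dilution; clinical isolates, Sichuan/Beijing, Mar 2007–May 2008. Stock in DMSO, diluted with sterile water. Read-out: MIC per strain, summarised as MIC50/MIC90/range.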"}, "[2]": {"tested_on": "E. feacalis", "assay": "Minimum inhibitory concentration (MIC) in vitro, agar dilution method", "format": "cell-based", "conditions": "hydrate", "summary_of_the_method": "as §1"}, "[3]": {"tested_on": "S. epidermidis MSSE", "assay": "Minimum inhibitory concentration (MIC) in vitro, agar dilution method", "format": "cell-based", "conditions": "hydrate", "summary_of_the_method": "as §1"}, "[4]": {"tested_on": "Staphylococcus aureus MRSA", "assay": "Minimum inhibitory concentration (MIC) in vitro, agar dilution method", "format": "cell-based", "conditions": "hydrate", "summary_of_the_method": "as §1"}, "[5]": {"tested_on": "E. feacium", "assay": "Minimum inhibitory concentration (MIC) in vitro, agar dilution method", "format": "cell-based", "conditions": "hydrate", "summary_of_the_method": "as §1"}, "[6]": {"tested_on": "S. epidermidis MRSE", "assay": "Minimum inhibitory concentration (MIC) in vitro, agar dilution method", "format": "cell-based", "conditions": "hydrate", "summary_of_the_method": "as §1"}, "[7]": {"tested_on": "Staphylococcus aureus MSSA", "assay": "Minimum inhibitory concentration (MIC) in vitro, agar dilution method", "format": "cell-based", "conditions": "hydrate", "summary_of_the_method": "as §1"}, "[8]": {"assay": "Solubility in different solvents according to Chinese Pharmacopeia (2005 edition)", "format": "physicochemical", "conditions": "for Result: at the given solute:solvent ratio", "description": "The solubility of the (S)—[N-3-(3′-fluoro-4′-(4″-phenylpiperazinyl))phenyl-2-oxo-5-oxazolelidinyl]methylacetamide hydrates was tested with different solvents, and the test results are shown in Tables 15-19. The solubility was measured according to Chinese Pharmacopeia (2005 edition)."}, "[9]": {"conditions": "E. feacalis (5 strains), clinically isolated"}, "[10]": {"conditions": "S. ep MSSE (10 strains), clinically isolated"}, "[11]": {"conditions": "S. MRSA (10 strains), clinically isolated"}, "[12]": {"conditions": "E. feacium (5 strains), clinically isolated"}, "[13]": {"conditions": "S. ep MRSE (10 strains), clinically isolated"}, "[14]": {"conditions": "S. MSSA (11 strains), clinically isolated"}}, "data": [{"smiles": "CC(=O)NC[C@H]1CN(c2ccc(N3CCN(c4ccccc4)CC3)c(F)c2)C(=O)O1", "note": "[⅖ hydrate, (S)—[N-3-(3′-fluoro-4′-(4″-phenylpiperazinyl))phenyl-2-oxo-5-oxazolidinyl]methyl acetamide 2/5 hydrate]", "values": [{"measurement": "MIC", "setting": "[1]", "result": 0.5, "unit": "µg/mL"}, {"measurement": "MIC50", "setting": "[2]; [9]", "result": 0.5, "unit": "µg/mL"}, {"measurement": "MIC90", "setting": "[2]; [9]", "result": 0.5, "unit": "µg/mL"}, {"measurement": "MICrange", "setting": "[2]; [9]", "result": "0.125 to 0.5", "unit": "µg/mL"}, {"measurement": "MIC", "setting": "[2]; strain Efa 116 (Table 8 No. 16)", "result": 0.5, "unit": "µg/mL"}, {"measurement": "MIC", "setting": "[2]; strain Efa 907 (Table 8 No. 19)", "result": 0.5, "unit": "µg/mL"}, {"measurement": "MIC", "setting": "[2]; strain Efa 3006 (Table 8 No. 18)", "result": 0.25, "unit": "µg/mL"}, {"measurement": "MIC", "setting": "[2]; strain Efa 33748 (Table 8 No. 17)", "result": 0.5, "unit": "µg/mL"}, {"measurement": "MIC50", "setting": "[3]; [10]", "result": 0.5, "unit": "µg/mL"}, {"measurement": "MIC90", "setting": "[3]; [10]", "result": 0.5, "unit": "µg/mL"}, {"measurement": "MICrange", "setting": "[3]; [10]", "result": "0.125 to 0.5", "unit": "µg/mL"}, {"measurement": "MIC", "setting": "[3]; strain S. ep MSSE87 (Table 7 No. 23)", "result": 0.125, "unit": "µg/mL"}, {"measurement": "MIC", "setting": "[3]; strain S. ep MSSE88 (Table 8 No. 5)", "result": 0.5, "unit": "µg/mL"}, {"measurement": "MIC", "setting": "[3]; strain S. ep MSSE113 (Table 7 No. 24)", "result": 0.5, "unit": "µg/mL"}, {"measurement": "MIC", "setting": "[3]; strain S. ep MSSE116 (Table 7 No. 25)", "result": 0.5, "unit": "µg/mL"}, {"measurement": "MIC", "setting": "[3]; strain S. ep MSSE118 (Table 8 No. 2)", "result": 0.5, "unit": "µg/mL"}, {"measurement": "MIC", "setting": "[3]; strain S. ep MSSE119 (Table 7 No. 27)", "result": 0.125, "unit": "µg/mL"}, {"measurement": "MIC", "setting": "[3]; strain S. ep MSSE137 (Table 8 No. 4)", "result": 0.5, "unit": "µg/mL"}, {"measurement": "MIC", "setting": "[3]; strain S. ep MSSE140 (Table 8 No. 3)", "result": 0.5, "unit": "µg/mL"}, {"measurement": "MIC", "setting": "[3]; strain S. ep MSSE142 (Table 7 No. 26)", "result": 0.25, "unit": "µg/mL"}, {"measurement": "MIC", "setting": "[3]; strain S. ep MSSE153 (Table 8 No. 1)", "result": 0.5, "unit": "µg/mL"}, {"measurement": "MIC50", "setting": "[4]; [11]", "result": 1, "unit": "µg/mL"}, {"measurement": "MIC90", "setting": "[4]; [11]", "result": 0.5, "unit": "µg/mL"}, {"measurement": "MICrange", "setting": "[4]; [11]", "result": "0.25 to 0.5", "unit": "µg/mL"}, {"measurement": "MIC", "setting": "[4]; strain S. MRSA 29 (Table 7 No. 15)", "result": 0.5, "unit": "µg/mL"}, {"measurement": "MIC", "setting": "[4]; strain S. MRSA 101 (Table 7 No. 14)", "result": 0.5, "unit": "µg/mL"}, {"measurement": "MIC", "setting": "[4]; strain S. MRSA 201 (Table 7 No. 13)", "result": 0.5, "unit": "µg/mL"}, {"measurement": "MIC", "setting": "[4]; strain S. MRSA B27 (Table 7 No. 21)", "result": 0.5, "unit": "µg/mL"}, {"measurement": "MIC", "setting": "[4]; strain S. MRSA B105 (Table 7 No. 17)", "result": 0.5, "unit": "µg/mL"}, {"measurement": "MIC", "setting": "[4]; strain S. MRSA B143 (Table 7 No. 19)", "result": 0.5, "unit": "µg/mL"}, {"measurement": "MIC", "setting": "[4]; strain S. MRSA B151 (Table 7 No. 20)", "result": 0.25, "unit": "µg/mL"}, {"measurement": "MIC", "setting": "[4]; strain S. MRSA B164 (Table 7 No. 16)", "result": 0.5, "unit": "µg/mL"}, {"measurement": "MIC", "setting": "[4]; strain S. MRSA B199 (Table 7 No. 22)", "result": 0.5, "unit": "µg/mL"}, {"measurement": "MIC", "setting": "[4]; strain S. MRSA B617 (Table 7 No. 18)", "result": 0.5, "unit": "µg/mL"}, {"measurement": "MIC50", "setting": "[5]; [12]", "result": 1, "unit": "µg/mL"}, {"measurement": "MIC90", "setting": "[5]; [12]", "result": 1, "unit": "µg/mL"}, {"measurement": "MICrange", "setting": "[5]; [12]", "result": "0.5 to 1", "unit": "µg/mL"}, {"measurement": "MIC", "setting": "[5]; strain Efm 98 (Table 8 No. 21)", "result": 0.5, "unit": "µg/mL"}, {"measurement": "MIC", "setting": "[5]; strain Efm 171 (Table 8 No. 25)", "result": 0.5, "unit": "µg/mL"}, {"measurement": "MIC", "setting": "[5]; strain Efm 197 (Table 8 No. 22)", "result": 1, "unit": "µg/mL"}, {"measurement": "MIC", "setting": "[5]; strain Efm N3 (Table 8 No. 23)", "result": 1, "unit": "µg/mL"}, {"measurement": "MIC", "setting": "[5]; strain Efm N4 (Table 8 No. 24)", "result": 1, "unit": "µg/mL"}, {"measurement": "MIC50", "setting": "[6]; [13]", "result": 0.5, "unit": "µg/mL"}, {"measurement": "MIC90", "setting": "[6]; [13]", "result": 0.5, "unit": "µg/mL"}, {"measurement": "MICrange", "setting": "[6]; [13]", "result": "0.125 to 0.5", "unit": "µg/mL"}, {"measurement": "MIC", "setting": "[6]; strain S. ep MRSE4 (Table 8 No. 9)", "result": 0.5, "unit": "µg/mL"}, {"measurement": "MIC", "setting": "[6]; strain S. ep MRSE20 (Table 8 No. 6)", "result": 0.5, "unit": "µg/mL"}, {"measurement": "MIC", "setting": "[6]; strain S. ep MRSE87 (Table 8 No. 13)", "result": 0.5, "unit": "µg/mL"}, {"measurement": "MIC", "setting": "[6]; strain S. ep MRSE90 (Table 8 No. 10)", "result": 0.5, "unit": "µg/mL"}, {"measurement": "MIC", "setting": "[6]; strain S. ep MRSE101 (Table 8 No. 7)", "result": 0.125, "unit": "µg/mL"}, {"measurement": "MIC", "setting": "[6]; strain S. ep MRSE105 (Table 8 No. 11)", "result": 0.5, "unit": "µg/mL"}, {"measurement": "MIC", "setting": "[6]; strain S. ep MRSE140 (Table 8 No. 14)", "result": 0.5, "unit": "µg/mL"}, {"measurement": "MIC", "setting": "[6]; strain S. ep MRSE142 (Table 8 No. 12)", "result": 0.5, "unit": "µg/mL"}, {"measurement": "MIC", "setting": "[6]; strain S. ep MRSE210 (Table 8 No. 15)", "result": 0.5, "unit": "µg/mL"}, {"measurement": "MIC", "setting": "[6]; strain S. ep MRSE211 (Table 8 No. 8)", "result": 0.5, "unit": "µg/mL"}, {"measurement": "MIC50", "setting": "[7]; [14]", "result": 0.5, "unit": "µg/mL"}, {"measurement": "MIC90", "setting": "[7]; [14]", "result": 0.5, "unit": "µg/mL"}, {"measurement": "MICrange", "setting": "[7]; [14]", "result": "0.5 to 1", "unit": "µg/mL"}, {"measurement": "MIC", "setting": "[7]; strain S. MSSA 123 (Table 7 No. 3)", "result": 0.5, "unit": "µg/mL"}, {"measurement": "MIC", "setting": "[7]; strain S. MSSA 187 (Table 7 No. 7)", "result": 0.5, "unit": "µg/mL"}, {"measurement": "MIC", "setting": "[7]; strain S. MSSA 195 (Table 7 No. 6)", "result": 1, "unit": "µg/mL"}, {"measurement": "MIC", "setting": "[7]; strain S. MSSA 195 (Table 7 No. 12)", "result": 0.5, "unit": "µg/mL"}, {"measurement": "MIC", "setting": "[7]; strain S. MSSA 201 (Table 7 No. 11)", "result": 0.5, "unit": "µg/mL"}, {"measurement": "MIC", "setting": "[7]; strain S. MSSA 232 (Table 7 No. 2)", "result": 0.5, "unit": "µg/mL"}, {"measurement": "MIC", "setting": "[7]; strain S. MSSA 275 (Table 7 No. 10)", "result": 0.5, "unit": "µg/mL"}, {"measurement": "MIC", "setting": "[7]; strain S. MSSA 466 (Table 7 No. 8)", "result": 0.5, "unit": "µg/mL"}, {"measurement": "MIC", "setting": "[7]; strain S. MSSA 519 (Table 7 No. 9)", "result": 0.5, "unit": "µg/mL"}, {"measurement": "MIC", "setting": "[7]; strain S. MSSA 520 (Table 7 No. 4)", "result": 0.5, "unit": "µg/mL"}, {"measurement": "MIC", "setting": "[7]; strain S. MSSA 580 (Table 7 No. 5)", "result": 0.5, "unit": "µg/mL"}, {"measurement": "Solubility compared with the anhydride", "setting": "[8]; different solvents", "result": "sometimes more soluble than the anhydride"}, {"measurement": "Result", "setting": "[8]; solvent 0.1N Hydrochloric acid", "result": "Dissolved"}, {"measurement": "Result", "setting": "[8]; solvent 0.1N Sodium hydroxide", "result": "Insoluble"}, {"measurement": "Result", "setting": "[8]; solvent Acetonitrile", "result": "Dissolved"}, {"measurement": "Result", "setting": "[8]; solvent Ethanol", "result": "Dissolved"}, {"measurement": "Result", "setting": "[8]; solvent Methanol", "result": "Dissolved"}, {"measurement": "Result", "setting": "[8]; solvent Water, hydrate", "result": "Dissolved"}]}]}
